Measured values reported in patent publication US5734081A, “Arylthio compounds” (Warner-Lambert Company, priority 1995, dated 1998).

Tests used:
[1] = tested on: HIV-1; test: CEM cell assay, anti-HIV-1 activity; format: cell-based; details: Human immunodeficiency virus 1, CCRF-CEM, HIV-1, 6 or 7 days, read-out: EC50 (Effective Concentration which protects cells from viral cytopathic effects)
Text: The test systems utilized to establish the antiviral activity of the arylthio compounds of this invention are well recognized in the art and are routinely employed for such purpose. For example, the assay utilized to evaluate the compounds activity against the HIV virus is that employed by the U.S. National Cancer Institute as described by Weislow O. S., et al., J. Natl. Cancer Inst., 1989;81:577-586, incorporated herein by reference.
The procedure is designed to detect agents acting at any stage of the virus reproductive cycle. The assay basically involves the killing of T4 lymphocytes by HIV. Small amounts of HIV are added to cells, and at least two complete cycles of virus reproduction are necessary to obtain the required cell killing. Agents which interact with virions, cells, or virus gene-products to interfere with viral activities will protect cells from cytolysis. The system is automated in several features to accommodate large numbers of candidate agents, and is generally designed to detect anti-HIV activity. However, compounds which degenerate or are rapidly metabolized in the culture conditions may not show activity in this screen.
(§1) Yet another test system employed to determine antiviral activity is called the CEM cell assay.
(§2) T4 lymphocytes (CEM cell line) are exposed to HIV at a virus to cell ratio approximately 0.05, and plated along with noninfected control cells in 96-well microliter plates.
(§3) The candidate agent is dissolved in dimethyl sulfoxide (unless otherwise noted), then diluted 1:200 in cell culture medium. Further dilutions (half-log10) are prepared before adding to an equal volume of medium containing either infected or noninfected cells. Cultures are incubated at 37° in a 5% carbon dioxide atmosphere for 6 or 7 days. The tetrazolium salt, XTT, is added to all wells, and cultures are incubated to allow formazan color development by viable cells (J. National Cancer Institute, 1989;81:577-586). Individual wells are analyzed spectrophotometrically to quantitate formazan production, and in addition are viewed microscopically for detection of viable cells confirmation of protective activity.
(§4) Drug-tested virus-infected cells are compared with drug-treated noninfected cells and with other appropriate controls (untreated infected and untreated noninfected cells, drug-contain wells without cells, etc.) on the same plate. Data are reviewed in comparison with other tests done at the same time and a determination about activity is made.

[2] = CEM cell growth inhibition (XTT, noninfected cells); format: cell-based; details: human, CEM Cell Assay, drug alone, read-out: IC50 (Inhibitory Concentration where drug alone inhibits cell growth)
Method: as §1, §2, §3, §4

[3] = molecular target: T1, HIV-1 Nucleocapsid Protein (NCp7) (Human immunodeficiency virus type 1 group M subtype B, UniProt P12493); test: Zinc extrusion assay (TSQ fluorescence) from the zinc fingers of HIV-1 nucleocapsid protein (NCp7); format: biochemical; details: 10 μM compound, 2.8 μM NCp7, pH 7.4, 26° C., 90 minutes
T1 construct: The NCp7 protein containing 2 Zn-fingers and 2 Zn ions is incubated with drug
Text: The compounds of the present invention cause the extrusion of zinc from the nucleocapsid protein (NCp7) of HIV-1. The NC protein is highly conserved among all retroviruses (South T., Blake P., et al., Biochemistry, 1990;29:7786) and is essential for viral infectivity (Aldovini A. and Young R., J. Virology, 1990;64:1920 and Gorelick R., Nigida S., et al., J. Virology, 1990;64:3207). The zinc is normally held in NC proteins by 1 or 2 zinc fingers. In the case of HIV-1, 2 zinc fingers are present (Summers M., South T., et al., Biochemistry, 1990;29:329) and are involved specifically with the PSI site on viral RNA which controls the packaging of viral RNA. Interference of this packaging causes the formation of non-infectious virions (Dannull J., Surovoy A., et al., EMBO, 1994;13:1525). It has previously been shown that compounds that cause zinc extrusion have potent anti-HIV activity in multiple cell lines and against all retroviruses (Rice W., Schaeffer C., et al., Nature, 1993;361:473).
A fluorescence-based assay has been developed to monitor the ejection of zinc from purified HIV-1 NCp7. The fluorophore, N-(6-methoxy-8-quinolyl)-p-toluenesulfonamide (TSQ), has an increased fluorescent signal upon bonding zinc ion in solution. The NCp7 protein containing 2 Zn-fingers and 2 Zn ions is incubated with drug causing the extrusion of Zn ions. The released Zn is then sequestered by the TSQ and the increased fluorescence monitored relative to control. […] Fluorescence (excitation 355 nm emission 400 nm) was monitored versus time. Controls were the NCp7 under assay conditions without drug, and apo NCp7 (no Zn) with drug. The % Zn extrusion was calculated based on the actual fluorescence measured divided by the fluorescence of all theoretical Zn extruded (5.6 μM)×100.
Table 1 below presents data for several invention compounds evaluated in the zinc extrusion assay described above.

[4] = tested on: HIV-1; test: HIV H9 cell assay, anti-HIV-1 activity; format: cell-based; details: Human immunodeficiency virus 1, H9, 168 h, read-out: EC50 (Effective Concentration which protects cells from viral cytopathic effects)
Text: Another test system utilized to evaluate the invention compounds is called HIV H9 assay. The HIV H9 cell assay measures the inhibitor concentration required to suppress HIV-1 virus replication. In this system, viral growth occurs through multiple rounds of the life-cycle. Any suppression of the replication kinetics results in a geometric decrease in virus production. As a result, this assay is a sensitive means of measuring the ability of a compound to inhibit HIV-1 viral replication.
(§5) The H9 T-cell line is batch infected with HIV virus at an M0I of 0.01. After 2 hours absorption, the cells are washed, resuspended in RPMI-1640/10% fetal calf serum, and seeded at […] of a 96-well plate. A duplicate plate of uninfected H9 cells is prepared for the cytotoxicity assay. Drugs are serially diluted 1/3.16 in DMSO, transferred to media at an 8× concentration, and then added to the cultures in triplicate. The final DMSO concentration of 0.002 (0.2%).
(§6) Viral production is measured by RT assay and cytotoxicity is measured by XTT assay at 7 days post-infection. The RT assay is performed as a modification of Borroto-Esoda and Boone, J. Virol., 1991;65:1952-1959 and quantitated using a Molecular Dynamics Phosphoimager with Imagequant software. The XTT assay is performed as a modification of Roehm, et al., J. Immuno. Methods., 1991;142:257-265 and quantitated using a molecular Devices Thermomax plate reader with Softmax software.
(§7) Data is electronically transferred to a Microsoft Excell spreadsheet for analysis. The RT assay values equivalent to 50% and 90% inhibition of virus production are calculated from the untreated controls. The concentrations of inhibitor required to produce these values (IC50 and IC90) are interpolated from data points flanking these RT activities. The XTT assay values equivalent to 50% cytotoxicity are calculated from the untreated controls. The concentrations of inhibitor required to produce this value are interpolated from data points flanking these XTT values.

[5] = H9 cell cytotoxicity (XTT assay, uninfected cells); format: cell-based; details: human, drug alone, read-out: IC50 (Inhibitory Concentration where drug alone inhibits cell growth)
Method: as §5, §6, §7

CC(=O)N[C@@H](CSSc1ccccc1C(=O)Nc1ccc(S(N)(=O)=O)cc1)C(=O)O [Example 134, 2-Acetylamino-3-[2-(4-sulfamoylphenylcarbamoyl)phenyldisulfanyl]-propionic acid]
EC50 [1]: 6.9 µM
CC50 [2]: > 100 µM
% Zinc Extrusion Relative to Control [3]: 77%

O=C(N[C@@H](C(=O)O)c1ccccc1)c1ccccc1SSc1ccccc1C(=O)N[C@@H](C(=O)O)c1ccccc1 [Example 68, [R-(R*,R*)] (2-{2-[(Carboxy-phenyl-methyl)-carbamoyl]phenyldisulfanyl}-benzoylamino)-phenyl-acetic acid]
EC50 [1]: 25 µM
CC50 [2]: > 100 µM
% Zinc Extrusion Relative to Control [3]: 89%

COC(=O)[C@H](N)C(C)(C)SSc1ccccc1C(=O)Nc1ccc(S(N)(=O)=O)cc1 [Example 139, 2-Amino-3-methyl-3-[2-(4-sulfamoylphenylcarbamoyl)phenyldisulfanyl]-butyric acid, methyl ester]
EC50 [1]: 6.9 µM
CC50 [2]: > 100 µM
% Zinc Extrusion Relative to Control [3]: 70%

O=C(O)CCNC(=O)c1ccccc1SSc1ccccc1C(=O)NCCC(=O)O [Example 76, 3,3'-[Dithiobis(2,1-phenylenecarbonylimino)]bis-propionic acid]
EC50 [1]: 6.2 µM
CC50 [2]: > 100 µM
% Zinc Extrusion Relative to Control [3]: 82%

NS(=O)(=O)c1cc(Cl)ccc1SSc1ccc(Cl)cc1S(N)(=O)=O [Example 148, 2,2'-Dithiobis[5-chloro]-benzenesulfonamide]
EC50 [1]: 12 µM
CC50 [2]: 30 µM
% Zinc Extrusion Relative to Control [3]: 92%

CC(SSc1ccccc1C(=O)Nc1ccc(S(N)(=O)=O)cc1)C(=O)NCC(=O)O (centres unmarked) [Example 135, {2-[2-(4-Sulfamoylphenylcarbamoyl)phenyldisulfanyl]propionylamino}-acetic acid]
EC50 [1]: 5.8 µM
CC50 [2]: > 100 µM
% Zinc Extrusion Relative to Control [3]: 40%

CN(C(=O)c1ccccc1SSc1ccccc1C(=O)N(C)c1ccc(S(N)(=O)=O)cc1)c1ccc(S(N)(=O)=O)cc1 [Example 142]
EC50 [1]: 17 µM
CC50 [2]: > 100 µM
% Zinc Extrusion Relative to Control [3]: 84%

CCC(C)C(NC(=O)c1ccccc1SSc1ccccc1C(=O)NC(C(=O)O)C(C)CC)C(=O)O (racemic) [Example 5, 2-[[2-[(1-Carboxy-2-methylbutylcarbamoyl)phenyldisulfanyl]-benzoyl]-amino]-3-methylpentanoic acid]
EC50 [1]: 10.5 µM
CC50 [2]: 105 µM
EC50 [4]: 1400 nM
CC50 at 168 h [5]: 62 µM
% Zinc Extrusion Relative to Control [3]: 87%

NC(=O)c1cc(NC(=O)c2ccccc2)ccc1SSc1ccc(NC(=O)c2ccccc2)cc1C(N)=O [Example 75, 2,2'-Dithiobis[5-(benzoylamino)-benzamide]]
EC50 [1]: 5.3 µM
CC50 [2]: 59 µM
% Zinc Extrusion Relative to Control [3]: 52%

CC(=O)Nc1ccc(S)c(C(N)=O)c1 [Example 10, 5-Acetylamino-2-thiobenzamide]
EC50 [4]: 5400 nM
CC50 at 168 h [5]: > 100 µM

O=C(Nc1ccc(S(=O)(=O)Nc2ncccn2)cc1)c1ccccc1SSc1ccccc1C(=O)Nc1ccc(S(=O)(=O)Nc2ncccn2)cc1 [Example 15, 2,2'-Dithiobis[N-[4-[(2-pyrimidinylamino)sulfonyl]phenyl]-benzamide]]
EC50 [4]: 2000 nM
CC50 at 168 h [5]: 22 µM
% Zinc Extrusion Relative to Control [3]: 72%

CC(SSc1ccccc1C(=O)Nc1ccc(S(N)(=O)=O)cc1)C(=O)O (centres unmarked) [Example 132, 2-[2-(4-Sulfamoylphenylcarbamoyl)phenyldisulfanyl]propionic acid]
EC50 [1]: 2.8 µM
CC50 [2]: > 100 µM
% Zinc Extrusion Relative to Control [3]: 70%

COC(=O)[C@H](CSSc1ccccc1C(=O)Nc1ccc(S(N)(=O)=O)cc1)NC(C)=O [Example 133, 2-Acetylamino-3-[2-(4-sulfamoylphenylcarbamoyl)phenyldisulfanyl]-propionicacid, methyl ester]
EC50 [1]: 6.7 µM
CC50 [2]: 69 µM
% Zinc Extrusion Relative to Control [3]: 53%

Cc1ccc(C(=O)N[C@@H](CC(C)C)C(=O)O)c(SSc2cc(C)ccc2C(=O)N[C@@H](CC(C)C)C(=O)O)c1 [Example 57, [S-(R*,R*)]2-{2-[2-(1-Carboxy-3-methyl-butylcarbamoyl)-5-methyl-phenyldisulfanyl]-4-methylbenzoylamino}-4-methyl-pentanoic acid]
EC50 [1]: 6 µM
CC50 [2]: 71 µM

NC(=O)c1cc(NC(=O)C(F)(F)F)ccc1SSc1ccc(NC(=O)C(F)(F)F)cc1C(N)=O [Example 74]
EC50 [1]: 6.3 µM
CC50 [2]: 67 µM
% Zinc Extrusion Relative to Control [3]: 59%

NS(=O)(=O)c1ccc(CNC(=O)c2ccccc2SSc2ccccc2C(=O)NCc2ccc(S(N)(=O)=O)cc2)cc1 [Example 12, 2,2'-Dithiobis[N-[[4-(aminosulfonyl)phenyl]methy]benzamide]]
EC50 [1]: 0.59 µM
CC50 [2]: 21 µM
% Zinc Extrusion Relative to Control [3]: 27%

NS(=O)(=O)c1ccc(NC(=O)c2ccc(SSc3ccc(C(=O)Nc4ccc(S(N)(=O)=O)cc4)cc3)cc2)cc1 [Reference Compound, 4,4dithiobis-4sulfamoyl benzanilide, reference compound]
EC50 [1]: > 100 µM
CC50 [2]: > 100 µM
EC50 [4]: > 100000 nM
CC50 at 168 h [5]: > 100 µM
% Zinc Extrusion Relative to Control [3]: 0%
